Data as given in patent publication US7732437B2, “Use of anti-histaminics for acute reduction of elevated intracranial pressure” (Janssen Pharmaceutica, NV., priority 2001, dated 2010).

Assays:
[1] = target: T1, human histamine H1-receptor (Homo sapiens, UniProt P35367); assay: Radioligand binding, histamine H1-receptor, competitive inhibition of [3H]Pyrilamine; conditions: CHO-cells transfected with the human histamine H1-receptor, read-out: H1-antagonist activity (pIC50) (converted)
T1 construct: expressed in transfected cells; host or cells: CHO cells
Protocol: Competitive inhibition of [^3H] […] Incubation was done during 150 min at 22° C.

[2] = tested on: Sprague-Dawley rats with closed head injury; assay: Closed Head Injury (CHI) model, severe head injury; conditions: for Effect on ICP / Effect on blood pressure: 0.5 mg/kg/min for 10 min, severe head injury, first 15 minutes, 6 rats; for effect on the lowering of the blood pressure: rat, in vivo
[3] = bolus of 1 mg/kg in 1 min, then infusion of 0.5 mg/kg/min for 44 min

T1 sequence (P35367 whole entry): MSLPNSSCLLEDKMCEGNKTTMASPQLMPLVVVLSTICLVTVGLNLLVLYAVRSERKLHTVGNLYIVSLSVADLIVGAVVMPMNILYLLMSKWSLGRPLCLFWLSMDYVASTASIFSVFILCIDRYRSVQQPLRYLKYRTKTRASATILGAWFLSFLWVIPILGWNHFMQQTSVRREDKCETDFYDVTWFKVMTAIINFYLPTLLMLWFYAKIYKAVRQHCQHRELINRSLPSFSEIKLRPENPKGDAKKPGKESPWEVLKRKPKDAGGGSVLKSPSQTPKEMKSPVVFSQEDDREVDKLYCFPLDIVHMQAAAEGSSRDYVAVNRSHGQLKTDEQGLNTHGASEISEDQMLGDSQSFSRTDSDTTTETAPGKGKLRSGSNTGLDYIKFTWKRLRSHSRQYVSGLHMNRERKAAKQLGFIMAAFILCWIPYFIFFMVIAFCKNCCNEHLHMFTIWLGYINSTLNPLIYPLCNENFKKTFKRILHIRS

`Cc1nc2sccn2c(=O)c1CCN1CCC(C)(C2c3ccccc3CCn3c2nc2ccccc23)CC1` (centres unmarked) [Compound 104] was tested, and the IC50 [1] was 0.1 µM.
`Cc1nc2ccccn2c(=O)c1CCN1CCC(C2c3ccccc3CCn3c2nc2ccccc23)CC1Cc1ccccc1` (centres unmarked) [Compound 81] showed an IC50 [1] of 0.2 µM.
Work on `Cc1nc2sccn2c(=O)c1CCN1CCC(C2(C)c3ccccc3CCn3c2nc2ccccc23)CC1` (centres unmarked) [Compound 110] yielded an IC50 [1] of 0.126 µM.
`CN1CCN(C(c2ccccc2)c2ccc(Cl)cc2)CC1` (centres unmarked) [Chlorcyclizine, reference compound] was tested, and the “Effect on ICP” value [2] was “−”, the “Effect on blood pressure” value [2] was 0 and the “effect on the lowering of the blood pressure” value [2] was “no or little effect”.
Work on `Cc1nc2n(C)c3ccccc3n2c(=O)c1CCN1CCC(C2c3ccccc3CCn3c2nc2ccccc23)CC1Cc1ccccc1` (centres unmarked) [Compound 13] yielded an IC50 [1] of 0.316 µM.
In the case of `CN1CCC(OC(c2ccccc2)c2ccccc2)CC1` [Diphenylpyraline, reference compound], the “Effect on ICP” value [2] is reported as “−”.
In the case of `Cc1nc2n(Cc3ccccn3)c3ccccc3n2c(=O)c1CCN1CCC(C2c3ccccc3CCn3c2nc2ccccc23)CC1Cc1ccccc1` (centres unmarked) [Compound 20], the IC50 [1] is reported as 0.398 µM.
For `Cc1nc2n(CCOCCO)c3ccccc3n2c(=O)c1CCN1CCC(C2c3ccccc3CCn3c2nc2ccccc23)CC1Cc1ccccc1` (centres unmarked) [Compound 37], the IC50 [1] was 0.631 µM.
With Cyclodextrine the “Effect on ICP” value [2] was “−”.
In the case of `CN1CCC(=C2c3ccccc3CC(=O)c3sccc32)CC1` [Ketotifen, reference compound], the “Effect on blood pressure” value [2] is reported as 0 and the “effect on the lowering of the blood pressure” value [2] is reported as “no or little effect”.
Compound `Cc1nc2n(C)c3ccccc3n2c(=O)c1CCN1CCC(C2c3ccccc3CCn3c2nc2ccccc23)CC1Cc1ccccc1` (centres unmarked) [Compound 55] has an IC50 [1] of 0.251 µM.
With `Cc1nc2n(C)c3ccccc3n2c(=O)c1CCN1CCC(C2c3ccccc3CCn3c2nc2ccccc23)CC1Cc1ccccc1` (centres unmarked) [Compound 48] the IC50 [1] was 0.316 µM.
With `Cc1nc2n(C)c3ccccc3n2c(=O)c1CCN1CCC(C2c3ccccc3CCn3c2nc2ccccc23)CC1Cc1ccccc1` (single isomer, unassigned) [Compound 46] the IC50 [1] was 0.126 µM.
With `Cc1nc2n(C)c3ccccc3n2c(=O)c1CCN1CCC(C2c3ccccc3CCn3c2nc2ccccc23)CC1Cc1ccccc1` (single isomer, unassigned) [Compound 44] the “Decision (sequential statistical evaluation)” value [2, 3] was “active” and the “Delta %: average change of the relative ICP from baseline over the treatment period” value [2, 3] was −14.8%.
For `Cc1nc2n(C)c3ccccc3n2c(=O)c1CCN1CCC(C2c3ccccc3CCn3c2nc2ccccc23)CC1Cc1ccccc1` (single isomer, unassigned) [Compound 57], the IC50 [1] was 0.398 µM.
With `CCOC(=O)N1CCC(=C2c3ccc(Cl)cc3CCc3cccnc32)CC1` [Loratidine, reference compound] the “Effect on ICP” value [2] was “−”.
With `O=c1[nH]c2ccccc2n1CCCN1CCN(C(c2ccccc2)c2ccccc2)CC1` [Oxatomide, reference compound] the “Effect on ICP” value [2] was “−” and the “Effect on blood pressure” value [2] was “−”.
In the case of `CN(C)CCC(c1ccc(Br)cc1)c1ccccn1` (centres unmarked) [Brompheniramine, reference compound], the “Effect on ICP” value [2] is reported as “−”.
`Cc1cncc(Cn2c3ccccc3n3c(=O)c(CCN4CCC(C5c6ccccc6CCn6c5nc5ccccc56)CC4Cc4ccccc4)c(C)nc23)n1` (centres unmarked) [Compound 27] showed an IC50 [1] of 0.631 µM.
For `CC(CN(C)C)CN1c2ccccc2Sc2ccccc21` (centres unmarked) [Alimemazine, reference compound], the “Effect on ICP” value [2] was “−”.
`Cc1nc2ccccn2c(=O)c1CCN1CCC(C2c3ccccc3CCn3c2nc2ccccc23)C(C)C1` (single isomer, unassigned) [Compound 94] showed an IC50 [1] of 0.1 µM.
For `CCOC(=O)Cn1c2ccccc2n2c(=O)c(CCN3CCC(C4c5ccccc5CCn5c4nc4ccccc45)CC3Cc3ccccc3)c(C)nc12` (centres unmarked) [Compound 53], the IC50 [1] was 0.316 µM.
With `Cc1nc2n(C)c3ccccc3n2c(=O)c1CCN1CCC(C2c3ccccc3CCn3c2nc2ccccc23)CC1` (centres unmarked) [Compound 14] the IC50 [1] was 0.0251 µM.
Work on `Cc1nc2n(C)c3ccccc3n2c(=O)c1CCN1CCC(C2c3ccccc3CCn3c2nc2ccccc23)CC1Cc1ccccc1` (centres unmarked) [Compound 50] yielded an IC50 [1] of 0.251 µM.
In the case of `CN1CCC[C@@H]1CCO[C@](C)(c1ccccc1)c1ccc(Cl)cc1` [Clemastine, reference compound], the “Effect on ICP” value [2] is reported as “−”.
`Cc1nc2n(C)c3ccccc3n2c(=O)c1CCN1CCC(C2c3ccccc3CCn3c2nc2ccccc23)CC1Cc1ccccc1` (centres unmarked) [Compound 49] was tested, and the IC50 [1] was 0.316 µM.
For `Cc1nc2n(C)c3ccccc3n2c(=O)c1CCN1CCC(C2c3ccccc3CCn3c2nc2ccccc23)CC1Cc1ccccc1` (single isomer, unassigned) [Compound 58], the IC50 [1] was 0.398 µM.
`CCn1c2ccccc2n2c(=O)c(CCN3CCC(C4c5ccccc5CCn5c4nc4ccccc45)CC3Cc3ccccc3)c(C)nc12` (centres unmarked) [Compound 12] gave an IC50 [1] of 0.316 µM.
For `OC[C@@H](O)[C@@H](O)[C@H](O)[C@H](O)CO` [Mannitol, mannitol, reference compound], the “mean reduction of ICP” value ([2]; i.v. mannitol 3 g over 45 min) was “about 20%”, the “effect of repeated infusion on ICP” value ([2]; mannitol i.v. 0.125 g/kg/min, same time windows) was “lowering of ICP” and the “Decision (sequential statistical evaluation)” value ([2]; mannitol infusion of 67 mg/kg/min for 45 min, 5 separate tests) was “active”. For the same compound, the “Delta %: average change of the relative ICP from baseline over the treatment period” value ([2]; mannitol infusion of 67 mg/kg/min for 45 min, 5 separate tests, listed as Mannitol^1, 67 mg/kg) was −21.7%, the “Delta %: average change of the relative ICP from baseline over the treatment period” value ([2]; mannitol infusion of 67 mg/kg/min for 45 min, 5 separate tests, listed as Mannitol^2, 67 mg/kg) was −22.1% and the “Delta %: average change of the relative ICP from baseline over the treatment period” value ([2]; mannitol infusion of 67 mg/kg/min for 45 min, 5 separate tests, listed as Mannitol^3, 67 mg/kg) was −13.0%. For the same compound, the “Delta %: average change of the relative ICP from baseline over the treatment period” value ([2]; mannitol infusion of 67 mg/kg/min for 45 min, 5 separate tests, listed as Mannitol^4, 67 mg/kg) was −19.3% and the “Delta %: average change of the relative ICP from baseline over the treatment period” value ([2]; mannitol infusion of 67 mg/kg/min for 45 min, 5 separate tests, listed as Mannitol^5, 67 mg/kg) was −19.9%.
In the case of `Cc1nc2sccn2c(=O)c1CCN1CCC(=C(c2ccc(F)cc2)c2ccc(F)cc2)CC1` [Ritanserine, reference compound], the “Effect on blood pressure” value [2] is reported as “−”.
Work on `COCCOCn1c2ccccc2n2c(=O)c(CCN3CCC(C4c5ccccc5CCn5c4nc4ccccc45)CC3Cc3ccccc3)c(C)nc12` (centres unmarked) [Compound 29] yielded an IC50 [1] of 0.501 µM.
Work on `Cc1nc2sccn2c(=O)c1CCN1CCC(C2c3ccccc3CCn3c2nc2ccccc23)C(C)C1` (centres unmarked) [Compound 87] yielded an IC50 [1] of 0.251 µM.
`Clc1ccc(Cn2c(CN3CCCC3)nc3ccccc32)cc1` [Clemizole, reference compound] was tested, and the “Effect on ICP” value [2] was “−”.
In the case of `CC(C1=C(CCN(C)C)Cc2ccccc21)c1ccccn1` (centres unmarked) [Dimethindene, reference compound], the “Effect on ICP” value [2] is reported as “−”.
Work on `COCCOCCn1c2ccccc2n2c(=O)c(CCN3CCC(C4c5ccccc5CCn5c4nc4ccccc45)CC3Cc3ccccc3)c(C)nc12` (centres unmarked) [Compound 35] yielded an IC50 [1] of 0.794 µM.
Work on `CCOCCn1c2ccccc2n2c(=O)c(CCN3CCC(C4c5ccccc5CCn5c4nc4ccccc45)CC3Cc3ccccc3)c(C)nc12` (centres unmarked) [Compound 23] yielded an IC50 [1] of 0.2 µM.
Work on `Cc1nc2ccccn2c(=O)c1CCN1CCC(C2c3ccccc3CCn3c2nc2ccccc23)C(C)C1` (single isomer, unassigned) [Compound 89] yielded an IC50 [1] of 0.794 µM.
`CCOC(=O)Cn1c2ccccc2n2c(=O)c(CCN3CCC(C4c5ccccc5CCn5c4nc4ccccc45)CC3Cc3ccccc3)c(C)nc12` (centres unmarked) [Compound 54] was tested, and the IC50 [1] was 0.316 µM.
